This is an account of results in US9884825B2, “Curcumin analogs and methods of making and using thereof” (Georgia State University Research Foundation, Inc., priority 2012, dated 2018).

In data set [1] the test system is human cervical cancer cells (HeLa). Nature of the data set: MTT cytotoxicity assay, HeLa cells. Format: cell-based. Conditions: for IC50: Homo sapiens; for cytotoxicity against HeLa cells, in words: screening at 50 μM, 20 μM and 2 μM (FIGS. 1-2). The procedure: (§1) Two cell human cancer cell lines were used in this study: human cervical cancer cells (HeLa) and human embryonic kidney 293 cells (Hek). The cell lines were obtained from ATCC (Rockville, Md., USA). Cell lines were cultured at 37° C. and 5% CO2 in DMEM medium with 10% fetal bovine serum (FBS) and 1% penicillin/streptomycin (all obtained from GibcoBRL, Grand Island, N.Y.). Cells were passaged three times weekly by trypsinisation with 0.25% trypsin/0.02% EDTA solution (Sigma) into 75 cm^2 tissue culture flasks (Nunc, Denamark).
(§2) Both human cervical cancer cells (HeLa) and human embryonic kidney 293 cells (Hek) cell lines were seeded into 96-well plate (2.5×10^4 in 100 μL per well). Testing compounds were dissolved or suspended in DMSO to make 10 mM stock solutions. Addition of compounds was performed after adherent cells reached 40-50% confluence. After incubation for 48 h at 37° C. in humidified atmosphere with 5% CO2, 10 μL of MTT (5 mg/mL in PBS) was added to each well and incubated for another 4 h. The culture medium was then aspirated and 100 μL of DMSO was added to each well. Optical densities at 490 nm were measured by microplate reader (PERKINELMER VICTOR 3V model 1420). All tests were performed in triplicates. Doxorubicin was used as a positive control and the same amount DMSO without compound was used as negative control. IC50 values were obtained from the curve fitting by using Sigma plot10.

Data set [2] concerns human embryonic kidney 293 cells (Hek). In words: MTT cytotoxicity assay, Hek cells. In kind it is cell-based. Conditions: Hek 293 cells, 48 h incubation. How it is done: as §1, §2
A general note: Tetrazolium assays rely on reduction of a dye to a coloured formazan, in cell work by metabolically active cells.

In another data set the test system is PC3 cell. In words: Cytotoxicity against PC3 cell line. In kind it is cell-based. Conditions: Homo sapiens, PC-3, mean ± spread, unit inferred, read-out: IC50 PC3 cell (Table 6).
For another data set, the system named is DU145 cell. Nature of the data set: Cytotoxicity against DU145 cell line. The note with it: Homo sapiens, DU-145, mean ± spread, unit inferred, read-out: IC50 DU145 cell (Table 6). Format: cell-based.
A further data set concerns KB cell. In words: Cytotoxicity against KB cell line. Format: cell-based. Conditions: Homo sapiens, mean ± spread, unit inferred, read-out: IC50 KB cell (Table 6).
In the next data set the test system is Molt4 cell. In words: Cytotoxicity against MOLT4 cell line. In kind it is cell-based. Conditions: Homo sapiens, MOLT-4; Table 3, SM compounds.
Setting [3] is: HeLa cells, MTT assay, 48 h incubation, read-out: IC50 (μM) Hela.
[4] abbreviates: HeLa cells, MTT assay, range or bound stated in text, read-out: IC50 against HeLa cancer cell lines.
[5] abbreviates: HeLa cell, mean ± spread, unit inferred, read-out: IC50 HeLa cell (Table 6).
The mark [6] stands for this setting: HeLa, Table 3, SM compounds, read-out: IC50 (μM) against Hela cell.

Where two headings read alike, the source gives them in different places. Bounds are passed on as bounds.

Turning to `Cc1ccc(S(=O)(=O)N2C/C(=C\c3ccc(Br)cc3)C(=O)/C(=C/c3ccc(Br)cc3)C2)cc1` [3a, 3,5-Bis(4-bromobenzylidene)-1-tosylpiperidin-4-one], the melting point (in general, the temperature, or range, at which the solid turns liquid) turned out to be 214 °C. The IC50 (commonly the concentration that inhibits the measured activity by half) in data set [1] (setting [3]) is 0.28 µM. The IC50 in data set [1] (setting [4]) lay within 0.3 to 1.5 µM. In addition, in data set [1] (MTT assay), the “cytotoxicity against HeLa cells, in words” value (shortened to “cytotoxicity”) is reported as “very good activity”. This molecule gave an IC50 in data set [2] of 1.39 µM. The same molecule gave an IC50 in data set [2] (Homo sapiens, HEK293, 48 h) of 1.24 to 3.54 µM.

In turn, `Cc1ccc(S(=O)(=O)N2C/C(=C\c3ccc(F)cc3)C(=O)/C(=C/c3ccc(F)cc3)C2)cc1` [3j, 3,5-Bis(4-fluorobenzylidene)-1-tosylpiperidin-4-one] displayed a melting point of 204 °C. Besides, the IC50 in data set [1] (setting [3]) is 0.61 µM. Besides, the IC50 in data set [1] (setting [4]) was 0.3 to 1.5 µM. In addition, the concentration for half-maximal inhibition (IC50) in data set [2] came to 1.24 µM. Moreover, in data set [2] (Homo sapiens, HEK293, 48 h), the IC50 was in the range of 1.24 to 3.54 µM.

As for `O=C1/C(=C/c2ccc(Cl)cc2)CN(S(=O)(=O)c2ccccc2)C/C1=C\c1ccc(Cl)cc1` [4e, 3,5-Bis(4-chlorobenzylidene)-1-(phenylsulfonyl)piperidin-4-one], the melting point turned out to be 237 °C. The IC50 in data set [1] (setting [3]) turned out to be 0.85 µM. For the same molecule, in data set [1] (setting [4]), the IC50 lay in the range of 0.3 to 1.5 µM. The “cytotoxicity” value in data set [1] (MTT assay) was “very good activity”. Further, in data set [2], the midpoint of inhibition, the IC50, lay at 1.97 µM. This molecule also displayed an IC50 in data set [2] (Homo sapiens, HEK293, 48 h) of 1.24 to 3.54 µM.

Take `O=C1/C(=C/c2ccc(Br)cc2)CN(S(=O)(=O)c2ccccc2)C/C1=C\c1ccc(Br)cc1` [4i, 3,5-Bis(4-bromobenzylidene)-1-(phenylsulfonyl)piperidin-4-one]: the melting point is 247 °C. Moreover, in data set [1] (setting [3]), the IC50 is 1.44 µM. Also, in data set [1] (setting [4]), the IC50 is 0.3 to 1.5 µM.

With `CCN1C/C(=C\c2ccc(C(C)C)cc2)C(=O)/C(=C/c2ccc(C(C)C)cc2)C1` [6g, 1-Ethyl-3,5-bis(4-isopropylbenzylidene)piperidin-4-one], the IC50 is 0.86 µM in data set [1] (setting [3]); below 1 µM in data set [1] (setting [4]); 1.78 µM in data set [2]; 1.24 to 3.54 µM in data set [2] (Homo sapiens, HEK293, 48 h). For the same molecule, the “cytotoxicity” value in data set [1] (MTT assay) was “very good activity”.

The molecule `CCCCCn1cc(CN2CC(=Cc3ccc(CCC)cc3)C(=O)C(=Cc3ccc(CCC)cc3)C2)nn1` [15c, 1-[(1-Pentyl-1H-1,2,3-triazol-4-yl)methyl]-3,5-bis(4-propylbenzylidene)piperidin-4-one] came in with a melting point of 134 °C.

For the molecule `CCCCc1ccc(C=C2CN(Cc3cn(CCC)nn3)CC(=Cc3ccc(CCCC)cc3)C2=O)cc1` [16a, 3,5-Bis(4-butylbenzylidene)-1-[(1-propyl-1H-1,2,3-triazol-4-yl)methyl]piperidin-4-one], the melting point is 127 °C.

In the case of `CCCCc1ccc(C=C2CN(Cc3cn(CCCC)nn3)CC(=Cc3ccc(CCCC)cc3)C2=O)cc1` [16b, 1-[(1-Butyl-1H-1,2,3-triazol-4-yl)methyl]-3,5-bis(4-butylbenzylidene)piperidin-4-one], the melting point was determined as 136 °C.

`CCCCCn1cc(CN2CC(=Cc3ccc(CCCC)cc3)C(=O)C(=Cc3ccc(CCCC)cc3)C2)nn1` [16c, 3,5-Bis(4-butylbenzylidene)-1-[(1-pentyl-1H-1,2,3-triazol-4-yl)methyl]piperidin-4-one] had a melting point of 145 °C.

Take `COc1cccc2c1C(=O)c1c(O)c3c(c(O)c1C2=O)C[C@@](O)(C(=O)CO)C[C@@H]3O[C@H]1C[C@H](N)[C@H](O)[C@H](C)O1` [Doxorubicin, reference compound]: the IC50 in data set [1] (setting [5]) turned out to be 0.96 ± 0.27 µM; in data set [1] (setting [3]), 2.89 µM; with PC3 cell, 230 ± 10 nM; in the data set on DU145 cell, 470 ± 250 nM; with KB cell, 400 ± 110 nM; in data set [2] (Homo sapiens, HEK293, 48 h), 0.95 µM.

As for `COc1cc(/C=C2\CC/C(=C\c3ccc(OCCBr)c(OC)c3)C2=O)ccc1OCCBr` [SM216], the values for the IC50 (in the data set with Molt4 cell; in data set [1] (setting [6])) were above 50 µM and above 2.5 µM, respectively.

For `COc1cc(/C=C2\CC/C(=C\c3ccc(OCCN4CCOCC4)c(OC)c3)C2=O)ccc1OCCN1CCOCC1` [SM218], the IC50 (with Molt4 cell; in data set [1] (setting [6])) was above 2.5 µM throughout.

For the molecule `COc1cc(/C=C2\CC/C(=C\c3ccc(OCCn4ccnc4)c(OC)c3)C2=O)ccc1OCCn1ccnc1` [SM223], the IC50 (with Molt4 cell; in data set [1] (setting [6])) was above 2.5 µM in each case.

Turning to `COc1cc(/C=C2\CC/C(=C\c3ccc(OCCN4CCCCC4)c(OC)c3)C2=O)ccc1OCCN1CCCCC1` [SM226], the IC50 in the data set with Molt4 cell came to 0.4 µM; in data set [1] (setting [6]) it was 0.02 µM.

As for `COc1cc(/C=C2\CC/C(=C\c3ccc(OCCN(C)C)c(OC)c3)C2=O)ccc1OCCN(C)C` [SM229], the results for the IC50 (in the data set with Molt4 cell; in data set [1] (setting [6])) were 0.5 µM and 0.03 µM, respectively.

On to `COc1cc(/C=C2\CC/C(=C\c3ccc(OCCn4ccnc4C)c(OC)c3)C2=O)ccc1OCCn1ccnc1C` [SM232], for which the IC50 amounted to 0.9 µM in the data set on Molt4 cell and 0.1 µM in data set [1] (setting [6]).

`CCc1ccc(/C=C2\CN(Cc3cn(CCNc4ccnc5cc(Cl)ccc45)nn3)C/C(=C\c3ccc(CC)cc3)C2=O)cc1` [SR13]: the IC50 in data set [1] (setting [5]) was determined as 5.3 ± 2.8 µM; in the data set with PC3 cell, 3700 ± 2100 nM; with DU145 cell, 6500 ± 3000 nM; in the data set on KB cell, 3700 ± 210 nM.

`O=C1/C(=C/c2ccc(Br)cc2)CN(Cc2cn(CCNc3ccnc4cc(Cl)ccc34)nn2)C/C1=C\c1ccc(Br)cc1` [SR14]: the IC50 in data set [1] (setting [5]) amounted to 2.7 ± 1.3 µM; with PC3 cell it was 1500 ± 240 nM; with DU145 cell, 6600 ± 4600 nM; in the data set with KB cell, 1200 ± 320 nM.

As to `O=C1/C(=C/c2ccc(Cl)cc2)CN(Cc2cn(CCNc3ccnc4cc(Cl)ccc34)nn2)C/C1=C\c1ccc(Cl)cc1` [SR15], the IC50 amounted to 2.1 ± 0.35 µM in data set [1] (setting [5]), 3100 ± 1800 nM in the data set on PC3 cell, 3100 ± 1300 nM in the data set on DU145 cell and 3000 ± 310 nM in the data set on KB cell.

As for `O=C1/C(=C/c2ccc(F)cc2)CN(Cc2cn(CCNc3ccnc4cc(Cl)ccc34)nn2)C/C1=C\c1ccc(F)cc1` [SR16], the IC50 amounted to 2.2 ± 0.93 µM in data set [1] (setting [5]), 2000 ± 50 nM in the data set with PC3 cell, 3700 ± 2400 nM in the data set on DU145 cell and 2600 ± 410 nM in the data set on KB cell.

Consider `O=C1/C(=C/c2cccc(Br)c2)CN(Cc2cn(CCNc3ccnc4cc(Cl)ccc34)nn2)C/C1=C\c1cccc(Br)c1` [SR17], for which the IC50 in data set [1] (setting [5]) amounted to 2.5 ± 1.2 µM; with PC3 cell, 2800 ± 800 nM; in the data set on DU145 cell, 9600 ± 7300 nM; with KB cell, 4300 ± 2400 nM.

Turning to `Cc1ccc(/C=C2\CN(Cc3cn(CCCNc4ccnc5cc(Cl)ccc45)nn3)C/C(=C\c3ccc(C)cc3)C2=O)cc1` [SR34], the IC50 in data set [1] (setting [5]) is 2.8 ± 0.93 µM; in the data set on PC3 cell, 2700 ± 800 nM; in the data set with DU145 cell, 4000 ± 490 nM; with KB cell, 4700 ± 1100 nM.

Regarding `O=C1/C(=C/c2ccc(Br)cc2)CN(Cc2cn(CCCNc3ccnc4cc(Cl)ccc34)nn2)C/C1=C\c1ccc(Br)cc1` [SR36], the IC50 in data set [1] (setting [5]) was 2 ± 1.2 µM; in the data set with PC3 cell, 1700 ± 240 nM; in the data set with DU145 cell, 1900 ± 590 nM; with KB cell, 1500 ± 300 nM.

On to `COc1ccc(/C=C2\CN(Cc3cn(CCCNc4ccnc5cc(Cl)ccc45)nn3)C/C(=C\c3ccc(OC)cc3)C2=O)cc1` [SR37], for which the IC50 in data set [1] (setting [5]) is 5 ± 2.2 µM; with PC3 cell, 11000 ± 2700 nM; with DU145 cell it was 6700 ± 1900 nM; with KB cell it was 4700 ± 870 nM.

`COc1ccc(/C=C2\CN(Cc3cn(CCCNc4ccnc5cc(Cl)ccc45)nn3)C/C(=C\c3ccc(OC)c(OC)c3)C2=O)cc1OC` [SR38]: the IC50 came to 2.5 ± 1.3 µM in data set [1] (setting [5]), 2600 ± 400 nM with PC3 cell, 6700 ± 4400 nM in the data set with DU145 cell and 2100 ± 50 nM in the data set on KB cell.

For `O=C1/C(=C/c2ccc(F)cc2)CN(Cc2cn(CCCNc3ccnc4cc(Cl)ccc34)nn2)C/C1=C\c1ccc(F)cc1` [SR39], the IC50 in data set [1] (setting [5]) is 2.6 ± 1.4 µM; with PC3 cell, 3000 ± 750 nM; with DU145 cell it was 5300 ± 2800 nM; with KB cell it was 2600 ± 690 nM.

For the molecule `O=C1/C(=C/c2ccc(Cl)cc2)CN(Cc2cn(CCCNc3ccnc4cc(Cl)ccc34)nn2)C/C1=C\c1ccc(Cl)cc1` [SR40], the IC50 was 1.8 ± 0.65 µM in data set [1] (setting [5]), 1800 ± 680 nM in the data set with PC3 cell, 1900 ± 620 nM with DU145 cell and 1800 ± 290 nM in the data set on KB cell.
